Here are results for 82 molecules from ChEMBL document CHEMBL3988442, “University of Dundee, Small-Polar-MMV Screening Library” (2021).

Bounds are passed on as bounds.

A short description of experiment [1]: microbe, parasite or virus in culture. To be noted: Mycobacterium tuberculosis, 72 h, read-out: pIC50 (converted).
Experiment [2] is described as follows: microbe, parasite or virus in culture. To be noted: Mycobacterium tuberculosis, 96 h, read-out: pIC50 (converted).

As for `Cc1nsc(C(=O)NCCc2ccccc2)n1`, the IC50 in experiment [1] was 15.5 µM; in experiment [2], 20.9 µM.

Take `CN(Cc1ccco1)C(=O)c1cccc(C#N)c1`: the IC50 in experiment [1] and in experiment [2] was more than 501 µM throughout.

As to `CN(Cc1cccn1C)C(=O)c1ccccc1F`, the figures for the IC50 in experiment [1] and in experiment [2] were 219 µM and 262 µM, respectively.

Regarding `Cc1cc(C(=O)NCC(O)c2ccccc2Cl)no1` (centres undefined), the IC50 in experiment [1] is 177 µM; in experiment [2] it was more than 501 µM.

As for `NCCc1ccc(OCC(F)(F)F)nc1`, the IC50 was 111 µM in experiment [1] and 211 µM in experiment [2].

Regarding `CC(C)CCC(C)NC(=O)Nc1ccccn1` (centres undefined), the IC50 is 13.6 µM in experiment [1] and 5.47 µM in experiment [2].

For the molecule `Cc1cnc(N2CCCC(c3ccccc3)C2)nc1-c1ncnn1C` (centres undefined), the IC50 in experiment [1] and in experiment [2] was more than 50.1 µM in each case.

Take `CC1(C)CCC(C(=O)N2CCCO2)c2ccccc21` (centres undefined): the IC50 in experiment [1] and in experiment [2] was more than 50.1 µM throughout.

Regarding `Cn1c(C2CC2)nc2c1CCN(Cc1nc(-c3ccsc3)no1)C2`, the IC50 is 16.2 µM in experiment [1] and more than 50.1 µM in experiment [2].

`CC(c1nc(COc2ccc(F)cc2)no1)S(C)(=O)=O` (centres undefined): the IC50 in experiment [1] was 230 µM; in experiment [2], 157 µM.

Consider `CCN(CCS(=O)(=O)c1ccccc1)CC(=O)N(C)C`, for which the IC50 is 130 µM in experiment [1] and 126 µM in experiment [2].

For the molecule `CCNc1nnc(SCc2ncccc2C)s1`, the IC50 in experiment [1] was 96.1 µM; in experiment [2] it was 58 µM.

`COC(=O)N1CCN(c2ccccn2)CC1`: the IC50 was more than 501 µM in experiment [1] and 168 µM in experiment [2].

On to `CN(Cc1ccc(Cl)s1)C(=O)C1CCN(C(N)=O)CC1`, for which the IC50 in experiment [1] and in experiment [2] was more than 501 µM throughout.

On to `CN1CCC(N(C)CCC(=O)N2CCC(CCc3ccccc3)CC2)C1` (centres undefined), for which the IC50 in experiment [1] is 41.5 µM; in experiment [2] it was 35.3 µM.

On to `COC1CCN(C(=O)Cc2ccc(N(C)C)cc2)C1` (centres undefined), for which the results for the IC50 in experiment [1] and in experiment [2] were 183 µM and 122 µM, respectively.

Take `CC1=C[C@@H](CN2CCCC2)[C@H](C(C)C)C[C@H]1Cc1nnc(C)o1`: the IC50 in experiment [1] and in experiment [2] was more than 50.1 µM throughout.

As for `CC(NC(=O)CSc1nnnn1C1CC1)c1cccs1` (centres undefined), the results for the IC50 in experiment [1] and in experiment [2] were 433 µM and more than 501 µM, respectively.

Regarding `COc1cn(-c2ccccc2)nc1C(=O)NCC(C)C`, the IC50 in experiment [1] is 282 µM; in experiment [2], 294 µM.

Consider `Cc1ccc(C(=O)N2CCCC(c3cc(C(F)(F)F)[nH]n3)C2)o1` (centres undefined), for which the IC50 was 15.4 µM in experiment [1] and 26.2 µM in experiment [2].

For the molecule `CC(C)N(C)S(=O)(=O)NCCc1cccs1`, the IC50 in experiment [1] is 182 µM; in experiment [2] it was 206 µM.

`Cc1ccccc1OCC(O)CN1CCC[C@@H]1CO` (some centres undefined): the IC50 in experiment [1] was 280 µM; in experiment [2], more than 501 µM.

`COCCNC(=O)c1cc2cc(C)ccc2n1C`: the IC50 in experiment [1] is 173 µM; in experiment [2], more than 501 µM.

As to `CC(C)c1nsc(NC2CCOC3(CCCC3)C2)n1` (centres undefined), the IC50 in experiment [1] is 12 µM; in experiment [2], 6.74 µM.

For `CN(CCc1ccccc1)Cc1nc(Cc2cccc(F)c2)no1`, the results for the IC50 in experiment [1] and in experiment [2] were 2.69 µM and 33.8 µM, respectively.

In the case of `CSc1ncc(C(=O)N2CCN(c3ccccc3C)CC2C)cn1` (centres undefined), the IC50 in experiment [1] was 16.4 µM; in experiment [2], 18.3 µM.

On to `Cc1nsc(C(=O)NCCc2ccc(Cl)cc2)n1`, for which the IC50 in experiment [1] was 19.4 µM; in experiment [2], 12.7 µM.

Turning to `CN(C)C(=O)c1nnn(-c2ccc(Br)cc2)n1`, the IC50 in experiment [1] is 12.6 µM; in experiment [2] it was 14.2 µM.

Consider `CCOc1ccc(CN2CCc3nc4ccsc4c(=O)n3CC2)cc1`, for which the figures for the IC50 in experiment [1] and in experiment [2] were 37.8 µM and 16.3 µM, respectively.

Consider `NC(=O)c1ccc(-n2ccnc2-c2cccc(O)c2)cc1N1CCCC1`, for which the IC50 in experiment [1] and in experiment [2] was more than 50.1 µM each time.

As to `Cn1ccnc1CN1CCC2(CC(=O)N(c3cncnc3)C2)C1` (centres undefined), the IC50 in experiment [1] and in experiment [2] was more than 50.1 µM in each case.

As to `COc1ccc(F)c(-c2cc(C(=O)NC3CC3)ccn2)c1`, the IC50 is 22.7 µM in experiment [1] and 10.6 µM in experiment [2].

Consider `NC(=O)COc1cccc(CN2CCC(F)CC2)c1`, for which the IC50 in experiment [1] and in experiment [2] was more than 501 µM each time.

As for `CC(Oc1ccc2c(c1)OCO2)C(=O)NC1CC1` (centres undefined), the IC50 in experiment [1] and in experiment [2] was more than 501 µM throughout.

Consider `NC(=O)C1CCN(Cc2ccc(S(=O)(=O)N3CCCC3)o2)CC1`, for which the IC50 in experiment [1] and in experiment [2] was more than 50.1 µM throughout.

`CC(C)Cc1nnc(NCc2ccsc2)o1`: the IC50 in experiment [1] is 3.95 µM; in experiment [2], 35.4 µM.

On to `CCNC(=O)NCC(C)Oc1cccc(OC)c1` (centres undefined), for which the IC50 in experiment [1] is 254 µM; in experiment [2], 301 µM.

Take `CO[C@H]1CNCC1NC(=O)c1cc2ccccc2n1C` (some centres undefined): the figures for the IC50 in experiment [1] and in experiment [2] were 359 µM and more than 501 µM, respectively.

With `O=C(CNC1CC1)NCCc1ccc(F)cc1`, the IC50 was 31.5 µM in experiment [1] and 63.6 µM in experiment [2].

As for `CSCC(C)(O)CNc1nnnn1-c1ccccc1` (centres undefined), the figures for the IC50 in experiment [1] and in experiment [2] were 306 µM and 290 µM, respectively.

In the case of `CC(C)CN(Cc1nnc(-c2ccco2)o1)CC(C)C`, the IC50 in experiment [1] is 4.4 µM; in experiment [2], more than 50.1 µM.

Take `CC1CCN(S(=O)(=O)NC(C)Cc2ccco2)CC1` (centres undefined): the IC50 in experiment [1] and in experiment [2] was more than 50.1 µM throughout.

With `CSCc1cc(F)ccc1CNC(=O)c1cn[nH]c1C`, the IC50 in experiment [1] and in experiment [2] was more than 501 µM in each case.

For `CCCOCCNC(=O)c1cc(C(F)(F)F)n[nH]1`, the IC50 in experiment [1] was 54.8 µM; in experiment [2], 43.8 µM.

`CC(C)c1ccc2c(c1)C(N)C(=O)N2` (centres undefined): the IC50 in experiment [1] and in experiment [2] was more than 501 µM in each case.

With `O=C(c1cnsn1)N1CCN(Cc2ccc(Cl)s2)CC1`, the IC50 is 45.6 µM in experiment [1] and 71 µM in experiment [2].

On to `O=C(NC[C@H]1CC[C@H](c2ccnc3ncnn32)CC1)C1CC1`, for which the IC50 in experiment [1] and in experiment [2] was more than 50.1 µM each time.

Consider `c1cncc(CN2CCCC(c3nnc(-c4cnccn4)o3)C2)c1` (centres undefined), for which the IC50 in experiment [1] and in experiment [2] was more than 50.1 µM throughout.

For the molecule `Cn1c(=O)c2c(nc(Cl)n2CCCC#N)n(C)c1=O`, the IC50 in experiment [1] and in experiment [2] was more than 501 µM in each case.

For `Cc1noc(NC(=O)c2ccc(C(F)(F)F)nc2C)n1`, the figures for the IC50 in experiment [1] and in experiment [2] were 164 µM and 151 µM, respectively.

In the case of `CCCC(=O)NC(C)(C)Cc1ccccc1OC`, the IC50 is 3.52 µM in experiment [1] and more than 50.1 µM in experiment [2].

For the molecule `CS(=O)(=O)Cc1ccccc1NCc1ccsc1`, the values for the IC50 in experiment [1] and in experiment [2] were 220 µM and more than 501 µM, respectively.

As to `CN(Cc1ccc(N)nc1)c1ncc(Cl)cn1`, the IC50 in experiment [1] is 208 µM; in experiment [2] it was 237 µM.

As for `Cn1cc(Cn2nc(-c3ccco3)oc2=O)cn1`, the values for the IC50 in experiment [1] and in experiment [2] were 187 µM and more than 501 µM, respectively.

Regarding `Cc1cc(S(=O)(=O)N2CCCC2CN)sc1C` (centres undefined), the IC50 in experiment [1] was 141 µM; in experiment [2], more than 501 µM.

`CC1(C)Oc2ccc(NC(=O)C3CCOC3)cc2O1` (centres undefined): the figures for the IC50 in experiment [1] and in experiment [2] were 289 µM and 261 µM, respectively.

Take `Cc1cccc(NCCNC(=O)c2ccccc2)n1`: the IC50 in experiment [1] and in experiment [2] was more than 501 µM throughout.

Turning to `CN(C)c1cc(CN)c2ccccc2n1`, the IC50 was 97.3 µM in experiment [1] and 132 µM in experiment [2].

On to `COC(=O)CCCC(=O)N1CCC2(CCCC2)C1`, for which the IC50 is 180 µM in experiment [1] and 110 µM in experiment [2].

`CCOc1cc(Cl)ccc1CN`: the IC50 in experiment [1] is 159 µM; in experiment [2], 121 µM.

For the molecule `O=c1n(Cc2ccccc2)nnn1-c1cccs1`, the values for the IC50 in experiment [1] and in experiment [2] were 7.64 µM and 12.7 µM, respectively.

On to `CC(=O)c1sc(NCCc2ccccn2)nc1C`, for which the IC50 in experiment [1] and in experiment [2] was more than 501 µM throughout.

In the case of `Cc1cc(C(=O)N2CCC(C(N)=O)C2)cc(Cl)c1Br` (centres undefined), the values for the IC50 in experiment [1] and in experiment [2] were 180 µM and 262 µM, respectively.

Take `CN(C)c1ccc(C(=O)N(C)C2(C#N)CCC2)cc1F`: the IC50 in experiment [1] and in experiment [2] was more than 501 µM throughout.

Take `c1ccc2c(N3CCNCC3)cncc2c1`: the results for the IC50 in experiment [1] and in experiment [2] were 460 µM and 290 µM, respectively.

`CC(=O)N1CCCC1c1nnn2cc(-c3ccncc3)ccc12` (centres undefined): the IC50 in experiment [1] and in experiment [2] was more than 50.1 µM in each case.

As to `CCNC(=O)c1cc(N2CCCC(C)CC2)ccn1` (centres undefined), the values for the IC50 in experiment [1] and in experiment [2] were 143 µM and 237 µM, respectively.

For the molecule `O=C(NCC1CC1)N1CCN(Cc2ccc3c(c2)OCCO3)CC1`, the IC50 in experiment [1] is 45.6 µM; in experiment [2], 17.9 µM.

Regarding `Cc1c(CN2CCSCC2)cccc1NS(C)(=O)=O`, the IC50 in experiment [1] and in experiment [2] was more than 501 µM in each case.

Take `O=C1N(Cc2cccnc2)CCC12CCCN(c1ncccn1)C2` (centres undefined): the IC50 in experiment [1] and in experiment [2] was more than 50.1 µM throughout.

With `CC(C)c1cccc(CN[C@H](CO)C(C)C)n1`, the figures for the IC50 in experiment [1] and in experiment [2] were 303 µM and more than 501 µM, respectively.

In the case of `COCC(=O)N1CCCN(Cc2cc(C(C)C)no2)CC1`, the IC50 in experiment [1] and in experiment [2] was more than 50.1 µM in each case.

As to `COc1cccc(-c2noc3c2CN(c2nc(C)ncc2C)CC3)c1`, the IC50 in experiment [1] was 3.39 µM; in experiment [2], 34.5 µM.

Take `Cc1cnn(CC2CCCN2c2ncnc3c2CCC3)c1` (centres undefined): the IC50 in experiment [1] and in experiment [2] was more than 50.1 µM in each case.

On to `OCC(CO)Nc1ccc2c(Cl)ccc(Cl)c2n1`, for which the IC50 in experiment [1] and in experiment [2] was more than 50.1 µM throughout.

As for `CN1CCC(NC(=O)c2coc(Br)c2)CC1=O` (centres undefined), the IC50 in experiment [1] and in experiment [2] was more than 501 µM in each case.

Take `CN(Cc1ccsc1)Cc1ccc(S(=O)(=O)N(C)C)o1`: the IC50 in experiment [1] was more than 501 µM; in experiment [2] it was 86.4 µM.

On to `CCNC(=O)C1CCCN(c2ccncc2Cl)C1` (centres undefined), for which the results for the IC50 in experiment [1] and in experiment [2] were 129 µM and 281 µM, respectively.

As to `CC(=O)NCC(=O)N1CCc2nc(-c3ccccc3)nc(C)c2CC1`, the IC50 in experiment [1] and in experiment [2] was more than 50.1 µM throughout.

On to `N#CCc1ccc(CN)cc1`, for which the values for the IC50 in experiment [1] and in experiment [2] were 182 µM and 135 µM, respectively.

For the molecule `CS(=O)(=O)NC(c1ccc(F)cc1)c1cccnc1` (centres undefined), the IC50 in experiment [1] is 338 µM; in experiment [2] it was more than 501 µM.

`CCc1ncc(CN(CCc2ccccc2)Cc2cccs2)cn1`: the IC50 in experiment [1] is 19.7 µM; in experiment [2] it was 9.25 µM.
